What follows are molecules tested against Beta-glucuronidase (Escherichia coli (strain K12), UniProt P05804) (assay: β-Glucuronidase Inhibition Assay). Settings: pH 7; 37 °C.
Experimental: β-Glucuronidase inhibitory activity was evaluated by a biochemical assay, based on the measurement of the absorbance of p-nitrophenol at 405 nm, produced from the enzymatic hydrolysis of chromogenic substrate [Choudhary et al., Steroids, 74:1040-1044; Khan et al., Chem. Pharm. Bull., 50:1443-1446]. The reaction mixture, consisting of 5 μL of test compound solution, 185 μL of 0.1 M acetate buffer (pH 7.0) and 10 μL β-glucuronidase solution, was kept for 30 min at 37°C. The total reaction volume being 250 μL. 50 μL of p-nitrophenyl-β-D-glucuronide was added to each plate. A multiplate reader was used to read the absorbance at 405 nm.

Sequence of Beta-glucuronidase (P05804 whole entry): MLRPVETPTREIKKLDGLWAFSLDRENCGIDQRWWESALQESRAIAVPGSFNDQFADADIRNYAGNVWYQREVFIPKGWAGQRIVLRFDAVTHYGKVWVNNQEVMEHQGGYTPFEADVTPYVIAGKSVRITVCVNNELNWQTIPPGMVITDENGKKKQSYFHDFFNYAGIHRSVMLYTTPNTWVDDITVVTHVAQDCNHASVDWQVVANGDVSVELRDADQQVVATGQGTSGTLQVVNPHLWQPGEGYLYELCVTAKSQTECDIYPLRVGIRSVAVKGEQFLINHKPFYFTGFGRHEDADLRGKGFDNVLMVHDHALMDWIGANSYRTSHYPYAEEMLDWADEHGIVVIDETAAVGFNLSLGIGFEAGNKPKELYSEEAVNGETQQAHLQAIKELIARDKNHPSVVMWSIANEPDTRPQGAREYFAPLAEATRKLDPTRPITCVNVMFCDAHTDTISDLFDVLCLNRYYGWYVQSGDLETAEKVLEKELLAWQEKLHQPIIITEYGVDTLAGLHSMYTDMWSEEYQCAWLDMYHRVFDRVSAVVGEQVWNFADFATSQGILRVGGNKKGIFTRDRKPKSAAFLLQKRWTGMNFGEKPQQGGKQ

SMILES	IC50 [µM]
C[C@]12CCC(=O)C=C1CC[C@@H]1[C@@H]2CC[C@]2(C)C(=O)CC[C@@H]12 [Androst-4-en-3,17-dione, 2]	430
C[C@]12CC[C@H]3[C@@H]([C@@H](O)CC4=C[C@@H](O)CC[C@@]43C)[C@@H]1CC[C@@H]2O [Androst-4-ene-3β,7β,17β-triol (8)]	191
C[C@]12CC[C@H](O)C=C1C(=O)C[C@@H]1[C@@H]2CC[C@]2(C)C(=O)CC[C@@H]12 [Androst-4-ene-3β-ol-6,17-dione (7)]	222
C[C@]12CCC(=O)CC1CC[C@@H]1[C@@H]2CC[C@]2(C)C(=O)CC[C@@H]12 (some centres undefined) [Androstane-3,17-dione (2)]	374
